{
  "source": "paper PMC5437225",
  "about": "“Picomolar, selective, and subtype-specific small-molecule inhibition of TRPC1/4/5 channels” (The Journal of Biological Chemistry, 2017)",
  "key": {"[1]": {"molecular_target": "T1, TRPC5-TRPC1 concatemer (Homo sapiens, UniProt P48995+Q9UL62)", "T1 construct": "concatemer of TRPC5 with TRPC1", "T1 sequence (P48995 whole entry, one chain of several)": "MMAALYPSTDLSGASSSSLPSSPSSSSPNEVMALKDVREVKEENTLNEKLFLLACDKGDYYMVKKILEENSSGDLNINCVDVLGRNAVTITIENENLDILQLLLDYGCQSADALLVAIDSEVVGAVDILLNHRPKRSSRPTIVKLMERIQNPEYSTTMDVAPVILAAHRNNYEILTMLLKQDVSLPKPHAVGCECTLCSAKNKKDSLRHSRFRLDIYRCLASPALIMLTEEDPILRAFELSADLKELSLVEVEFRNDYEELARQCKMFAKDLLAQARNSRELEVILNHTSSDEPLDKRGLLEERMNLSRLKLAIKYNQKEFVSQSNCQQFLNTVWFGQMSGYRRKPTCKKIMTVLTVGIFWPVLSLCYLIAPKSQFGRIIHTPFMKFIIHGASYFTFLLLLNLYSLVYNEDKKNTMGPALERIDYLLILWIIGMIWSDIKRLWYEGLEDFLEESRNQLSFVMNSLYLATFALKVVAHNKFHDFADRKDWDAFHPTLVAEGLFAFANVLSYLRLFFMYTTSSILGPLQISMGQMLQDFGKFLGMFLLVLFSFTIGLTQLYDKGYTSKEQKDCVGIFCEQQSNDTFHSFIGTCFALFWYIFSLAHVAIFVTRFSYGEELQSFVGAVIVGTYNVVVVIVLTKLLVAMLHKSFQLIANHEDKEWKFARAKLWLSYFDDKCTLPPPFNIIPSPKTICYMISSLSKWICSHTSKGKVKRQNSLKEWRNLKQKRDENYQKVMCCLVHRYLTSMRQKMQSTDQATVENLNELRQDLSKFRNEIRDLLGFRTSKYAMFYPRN", "test": "fura-2 Ca2+ entry, FlexStation 96-well", "format": "cell-based", "details": "read-out: C31 IC50", "from_the_text": "fura-2 Ca2+ entry, FlexStation 96-well on TRPC5-TRPC1 concatemer"}, "[2]": {"molecular_target": "T2, TRPC5 (Homo sapiens, UniProt Q9UL62)", "T2 construct": "homomer", "T2 sequence (Q9UL62 1-973)": "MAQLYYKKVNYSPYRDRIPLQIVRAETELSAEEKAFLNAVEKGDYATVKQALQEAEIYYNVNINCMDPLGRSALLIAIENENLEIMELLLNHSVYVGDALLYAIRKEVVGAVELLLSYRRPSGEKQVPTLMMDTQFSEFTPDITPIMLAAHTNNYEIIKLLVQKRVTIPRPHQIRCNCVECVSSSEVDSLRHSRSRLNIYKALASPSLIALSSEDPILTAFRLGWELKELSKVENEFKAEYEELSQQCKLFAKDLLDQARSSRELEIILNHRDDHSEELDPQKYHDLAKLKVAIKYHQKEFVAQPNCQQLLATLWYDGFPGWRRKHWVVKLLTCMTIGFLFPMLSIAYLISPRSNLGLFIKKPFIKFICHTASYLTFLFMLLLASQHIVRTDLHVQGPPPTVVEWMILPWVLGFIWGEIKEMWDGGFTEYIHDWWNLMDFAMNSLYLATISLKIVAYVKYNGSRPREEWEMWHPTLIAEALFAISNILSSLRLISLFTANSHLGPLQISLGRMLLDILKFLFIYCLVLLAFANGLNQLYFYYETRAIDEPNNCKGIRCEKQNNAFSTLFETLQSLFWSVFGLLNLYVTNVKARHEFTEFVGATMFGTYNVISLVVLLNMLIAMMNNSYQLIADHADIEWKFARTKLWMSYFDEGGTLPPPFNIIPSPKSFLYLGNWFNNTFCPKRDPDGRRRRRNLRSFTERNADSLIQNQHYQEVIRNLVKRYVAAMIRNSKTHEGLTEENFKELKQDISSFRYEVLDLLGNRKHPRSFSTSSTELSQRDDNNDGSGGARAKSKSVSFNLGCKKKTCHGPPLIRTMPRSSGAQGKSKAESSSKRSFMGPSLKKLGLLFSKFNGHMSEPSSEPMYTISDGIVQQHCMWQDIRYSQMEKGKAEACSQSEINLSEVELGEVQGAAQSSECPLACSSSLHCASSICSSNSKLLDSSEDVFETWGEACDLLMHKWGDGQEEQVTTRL", "test": "fura-2 Ca2+ entry, FlexStation 96-well", "format": "cell-based", "details": "activated by 10 nM (-)-englerin A; pH 7.4; room temperature; 30 min preincubation; read-out: C31 IC50", "from_the_text": "fura-2 Ca2+ entry, FlexStation 96-well on TRPC5"}},
  "data": [
    {"smiles": "Cn1c(=O)n(CCCO)c(=O)c2c1nc(Oc1cccc(OC(F)(F)F)c1)n2Cc1ccc(Cl)cc1", "note": "[compound 31, C31]", "values": [
      {"measurement": "IC50", "setting": "[1]", "result": 199, "unit": "pM"},
      {"measurement": "IC50", "setting": "[2]", "result": 1300, "unit": "pM"}
    ]}
  ]
}
